Target: T1, WHMpeV (MpeV from WH8020) (Synechococcus sp. WH 8020, UniProt Q02178)
T1 construct: His-tagged, in pCDF-Duet, co-expressed in E. coli with RS9916 cpeS, cpeZ, ho1/pebS and a PE beta-subunit
T1 sequence (Q02178 1-301): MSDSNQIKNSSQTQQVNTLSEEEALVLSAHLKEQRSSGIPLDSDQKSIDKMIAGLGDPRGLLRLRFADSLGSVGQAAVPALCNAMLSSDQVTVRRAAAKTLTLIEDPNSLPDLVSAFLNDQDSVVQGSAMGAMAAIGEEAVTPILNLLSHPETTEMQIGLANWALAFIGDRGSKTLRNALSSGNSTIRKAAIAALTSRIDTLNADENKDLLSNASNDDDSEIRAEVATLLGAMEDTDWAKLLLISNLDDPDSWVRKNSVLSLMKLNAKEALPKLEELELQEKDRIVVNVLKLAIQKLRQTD
Experiment: co-expression in E. coli; absorbance, zinc fluorescence, LC-MS-MS of the product subunit
Format: cell-based

| Compound | co-expression in E. coli; absorbance, zinc fluorescence, LC-MS-MS of the product (bilin acceptor WHCpeB (ligation without isomerization), RSCpeB or WHMpeB (ligation with isomerization), with RSCpeZ and RSCpeS) | co-expression in E. coli; absorbance, zinc fluorescence, LC-MS-MS of the product (covalent, protein-bound product on RSCpeB, WHMpeB and WHCpeB H141L) |
| --- | --- | --- |
| C=CC1=C(C)C(CC2=NC(=Cc3[nH]c(C=C4NC(=O)C(C)C4=CC)c(C)c3CCC(=O)O)C(CCC(=O)O)=C2C)NC1=O (centres unmarked) [phycoerythrobilin] | WHMpeV acts as a PEB lyase-isomerase, doubly ligating PUB on RSCpeB |  |
| C=CC1=C(C)[C@@H](CC2=N/C(=C\c3[nH]c(C[C@H]4NC(=O)C(C)=C4C=C)c(C)c3CCC(=O)O)C(CCC(=O)O)=C2C)NC1=O [phycourobilin] |  | WHMpeV is capable of isomerizing activity on both WHMpeB and RSCpeB |
